# Source: US20100267561A1, “HERBICIDAL PYRIDAZINONE DERIVATIVES” (priority 2007, published 2010)
# Assays:
# Experiment in all cases: Test B pre-/postemergence plant response
# Type in all cases: in vivo
# [1] = tested on: Russian thistle (Salsola iberica); conditions: Preemergence; for Russian Thistle plant response rating: scale 0 to 100
# In short: (§1)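 Preemergence and postemergence (plants 2-18 cm, 1- to 4-leaf stage) applications used test chemicals in a non-phytotoxic solvent with surfactant. Plants were held in a greenhouse 13 to 15 days, then rated visually against controls on a 0-100 scale (0 no effect, 100 complete control).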
# [2] = tested on: blackgrass (Alopecurus myosuroides)
# In short: as §1
# [3] = tested on: cocklebur (Xanthium strumarium)
# In short: as §1
# [4] = tested on: common (oilseed) sunflower (Helianthus annuus); conditions: Preemergence; for Sunflower plant response rating: scale 0 to 100
# In short: as §1
# [5] = tested on: common ragweed (Ambrosia elation)
# In short: as §1
# corn (Zea mays) = tested on: corn (Zea mays)
# In short: as §1
# [6] = tested on: downy bromegrass (Bromus tectorum)
# In short: as §1
# [7] = tested on: eastern black (E.B.) nightshade (Solanum ptycanthum); conditions: Preemergence; for Nightshade, E. B. plant response rating: scale 0 to 100
# In short: as §1
# [8] = tested on: green foxtail (Setaria viridis)
# In short: as §1
# [9] = tested on: surinam grass (Brachiaria decumbens)
# In short: as §1
# [10] = tested on: wheat (Triticum aestivum)
# In short: as §1
# wild oat (Avena fatua) = tested on: wild oat (Avena fatua)
# In short: as §1
# [11] = tested on: woolly cupgrass (Eriochloa villosa)
# In short: as §1
# [12] = tested on: yellow nutsedge (Cyperus esculentus)
# In short: as §1
# [13] = 31 g ai/ha, scale 0 to 100 (0 no effect, 100 complete control)
# [14] = 62 g ai/ha, 0 to 100 scale, 0 no effect, 100 complete control
# [15] = 8 g ai/ha, postemergence, 0-100 scale
# [16] = Postemergence, 16 g ai/ha, scale 0 to 100
# [17] = Postemergence, 31 g ai/ha, scale 0 to 100
# [18] = Postemergence, 62 g ai/ha, scale 0 to 100, 0 no effect, 100 complete control
# [19] = Preemergence, 31 g ai/ha, scale 0 to 100 (0 no effect, 100 complete control)
# [20] = Preemergence, 62 g ai/ha, 0 to 100 scale, 0 no effect, 100 complete control
# [21] = Preemergence, 8 g ai/ha, scale 0 to 100
# [22] = Preemergence, 16 g ai/ha, scale 0 to 100
# [23] = 16 g ai/ha, postemergence, 0-100 scale
structure (smiles),measurement,setting,value
CCCc1cc(-c2ccc(Cl)cc2)nn1-c1c(O)cnn(C)c1=O [Compound 76],"Plant response rating, Russian Thistle",[1]; [13],0
same,"Plant response rating, Russian Thistle",[1]; [14],0
same,Russian Thistle plant response rating,[1]; 8 g ai/ha,0
same,Russian Thistle plant response rating,[1]; 16 g ai/ha,0
same,Blackgrass plant response rating,[2]; [15],70
same,"Plant response rating, Blackgrass",[2]; [16],85
same,"Plant response rating, Blackgrass",[2]; [17],100
same,"Plant response rating, Blackgrass",[2]; [18],100
same,"Plant response rating, Blackgrass",[2]; [19],80
same,"Plant response rating, Blackgrass",[2]; [20],90
same,Blackgrass plant response rating,[2]; [21],40
same,Blackgrass plant response rating,[2]; [22],40
same,Cocklebur plant response rating,[3]; [15],0
same,"Plant response rating, Cocklebur",[3]; [16],0
same,"Plant response rating, Cocklebur",[3]; [17],0
same,"Plant response rating, Cocklebur",[3]; [18],0
same,"Plant response rating, Cocklebur",[3]; [19],0
same,"Plant response rating, Cocklebur",[3]; [20],0
same,Cocklebur plant response rating,[3]; [21],0
same,Cocklebur plant response rating,[3]; [22],0
same,"Plant response rating, Sunflower",[4]; [13],0
same,"Plant response rating, Sunflower",[4]; [14],0
same,Sunflower plant response rating,[4]; 8 g ai/ha,0
same,Sunflower plant response rating,[4]; 16 g ai/ha,0
same,Ragweed plant response rating,[5]; [15],0
same,Ragweed plant response rating,[5]; [23],0
same,"Plant response rating, Ragweed",[5]; [17],0
same,"Plant response rating, Ragweed",[5]; [18],0
same,"Plant response rating, Ragweed",[5]; [19],0
same,"Plant response rating, Ragweed",[5]; [20],0
same,Ragweed plant response rating,[5]; [21],0
same,Ragweed plant response rating,[5]; [22],0
same,Corn plant response rating,corn (Zea mays); [15],75
same,"Plant response rating, Corn",corn (Zea mays); [16],85
same,"Plant response rating, Corn",corn (Zea mays); [17],100
same,"Plant response rating, Corn",corn (Zea mays); [18],100
same,"Plant response rating, Corn",corn (Zea mays); [19],75
same,"Plant response rating, Corn",corn (Zea mays); [20],85
same,Corn plant response rating,corn (Zea mays); [21],0
same,Corn plant response rating,corn (Zea mays); [22],55
same,"Bromegrass, Downy plant response rating",[6]; [15],0
same,"Plant response rating, Bromegrass, Downy",[6]; [16],0
same,"Plant response rating, Bromegrass, Downy",[6]; [17],0
same,"Plant response rating, Bromegrass, Downy",[6]; [18],20
same,"Plant response rating, Bromegrass, Downy",[6]; [19],0
same,"Plant response rating, Bromegrass, Downy",[6]; [20],0
same,"Bromegrass, Downy plant response rating",[6]; [21],0
same,"Bromegrass, Downy plant response rating",[6]; [22],0
same,"Plant response rating, Nightshade, E. B.",[7]; [13],0
same,"Plant response rating, Nightshade, E. B.",[7]; [14],0
same,"Nightshade, E. B. plant response rating",[7]; 8 g ai/ha,0
same,"Nightshade, E. B. plant response rating",[7]; 16 g ai/ha,0
same,"Foxtail, Green plant response rating",[8]; [15],65
same,"Plant response rating, Foxtail, Green",[8]; [16],85
same,"Plant response rating, Foxtail, Green",[8]; [17],95
same,"Plant response rating, Foxtail, Green",[8]; [18],100
same,"Plant response rating, Foxtail, Green",[8]; [19],90
same,"Plant response rating, Foxtail, Green",[8]; [20],90
same,"Foxtail, Green plant response rating",[8]; [21],40
same,"Foxtail, Green plant response rating",[8]; [22],65
same,Surinam Grass plant response rating,[9]; [15],65
same,Surinam Grass plant response rating,[9]; [23],90
same,"Plant response rating, Surinam Grass",[9]; [17],100
same,"Plant response rating, Surinam Grass",[9]; [18],100
same,"Plant response rating, Surinam Grass",[9]; [19],95
same,"Plant response rating, Surinam Grass",[9]; [20],100
same,Surinam Grass plant response rating,[9]; [21],65
same,Surinam Grass plant response rating,[9]; [22],90
same,Wheat plant response rating,[10]; [15],10
same,Wheat plant response rating,[10]; [23],30
same,"Plant response rating, Wheat",[10]; [17],30
same,"Plant response rating, Wheat",[10]; [18],35
same,"Plant response rating, Wheat",[10]; [19],0
same,"Plant response rating, Wheat",[10]; [20],0
same,Wheat plant response rating,[10]; [22],0
same,"Oat, Wild plant response rating",wild oat (Avena fatua); [15],80
same,"Oat, Wild plant response rating",wild oat (Avena fatua); [23],95
same,"Plant response rating, Oat, Wild",wild oat (Avena fatua); [17],100
same,"Plant response rating, Oat, Wild",wild oat (Avena fatua); [18],100
same,"Plant response rating, Oat, Wild",wild oat (Avena fatua); [19],5
same,"Plant response rating, Oat, Wild",wild oat (Avena fatua); [20],80
same,"Oat, Wild plant response rating",wild oat (Avena fatua); [21],0
same,"Oat, Wild plant response rating",wild oat (Avena fatua); [22],0
same,"Cupgrass, Woolly plant response rating",[11]; [15],60
same,"Plant response rating, Cupgrass, Woolly",[11]; [16],65
same,"Plant response rating, Cupgrass, Woolly",[11]; [17],85
same,"Plant response rating, Cupgrass, Woolly",[11]; [18],90
same,"Plant response rating, Cupgrass, Woolly",[11]; [19],90
same,"Plant response rating, Cupgrass, Woolly",[11]; [20],98
same,"Cupgrass, Woolly plant response rating",[11]; [21],55
same,"Cupgrass, Woolly plant response rating",[11]; [22],75
same,"Nutsedge, Yellow plant response rating",[12]; [15],0
same,"Nutsedge, Yellow plant response rating",[12]; [23],0
same,"Plant response rating, Nutsedge, Yellow",[12]; [17],0
same,"Plant response rating, Nutsedge, Yellow",[12]; [18],0
same,"Plant response rating, Nutsedge, Yellow",[12]; [19],100
same,"Plant response rating, Nutsedge, Yellow",[12]; [20],100
same,"Nutsedge, Yellow plant response rating",[12]; [21],100
same,"Nutsedge, Yellow plant response rating",[12]; [22],100
